Results: paper PMC10374108, “Structural and biochemical characterization of the key components of an auxin degradation operon from the rhizosphere bacterium Variovorax” (PLOS Biology, 2023)
Where “and” joins values, the source holds several entries; their conditions need not be identical. Equal entries are not always repeated. Where two headings read alike, the source gives them in different places.

Tests used:
[1] = biological target: IadK2 (Variovorax paradoxus, UniProt T1X8R6); test: ITC, auxins binding to IadK2
Sequence of IadK2 (T1X8R6 entry or part of it): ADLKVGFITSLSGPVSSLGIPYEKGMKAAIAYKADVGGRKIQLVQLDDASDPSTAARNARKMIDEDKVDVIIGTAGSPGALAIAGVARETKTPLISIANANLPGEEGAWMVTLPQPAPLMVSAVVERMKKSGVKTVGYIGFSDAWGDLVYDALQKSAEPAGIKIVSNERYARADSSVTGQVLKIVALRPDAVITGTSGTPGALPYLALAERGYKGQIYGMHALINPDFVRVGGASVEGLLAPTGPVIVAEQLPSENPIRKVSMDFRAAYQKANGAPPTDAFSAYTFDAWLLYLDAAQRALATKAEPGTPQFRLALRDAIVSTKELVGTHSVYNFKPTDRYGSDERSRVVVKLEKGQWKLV
Procedure: (§1) ITC experiments were performed using a MicroCal PEAQ-ITC system (Malvern). All the experiments were performed at […] in a buffer containing 25 mM Tris-HCl (pH 7.5) and 150 mM NaCl (unless otherwise stated). […] Data was analyzed using the MicroCal PEAQ-ITC analysis software. All the measurements were repeated at least 2 times.

[2] = tested on: IadD/E-IadC dioxygenase system; test: In vitro IAA and analogs transformation assay, IadC + IadD/E; format: biochemical, Variovorax paradoxus CL14; conditions: normalised, replicates
Procedure: The reaction mixture was composed of 100 mM Tris-HCl (pH7.5), 250 μM reduced NADH, 10 μM ammonium iron (II) sulfate, and 3 μM of each enzyme component. […] The mixture was vortexed periodically to introduce oxygen for the reaction and was boiled to stop the reaction. After pelleting the precipitants, the supernatant was collected and mixed with 2 volumes of Salkowski reagent made of 0.5 M ferric chloride and 35% perchloric acid for the quantification of residual substrate by measuring the adsorption at 530 nm.

[3] = biological target: IadK3 (Variovorax paradoxus, UniProt A0A0H2LZ84); test: ITC, auxins binding to IadK3; design: species or system Variovorax paradoxus CL14
Sequence of IadK3 (A0A0H2LZ84 entry or part of it): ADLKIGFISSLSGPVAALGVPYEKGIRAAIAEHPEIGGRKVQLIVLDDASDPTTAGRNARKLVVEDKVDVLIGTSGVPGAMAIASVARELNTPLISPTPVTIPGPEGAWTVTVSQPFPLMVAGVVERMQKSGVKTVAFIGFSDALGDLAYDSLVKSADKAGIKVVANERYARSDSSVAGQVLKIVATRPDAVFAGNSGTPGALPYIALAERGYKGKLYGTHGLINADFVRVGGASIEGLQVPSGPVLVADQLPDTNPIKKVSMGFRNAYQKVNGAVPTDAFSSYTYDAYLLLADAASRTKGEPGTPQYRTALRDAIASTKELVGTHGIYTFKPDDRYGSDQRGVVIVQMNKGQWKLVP
Procedure: as §1

[4] = biological target: IadE (Variovorax paradoxus CL14); test: SEC; co-expressed IadD/E complex purified by cation exchange, 20 mg/ml, HiLoad 200 column, 25 mM Tris-HCl pH 7.5, 150 mM NaCl, 2 mM DTT; peak fractions on SDS-PAGE
[5] = biological target: IadD (Variovorax paradoxus CL14); test: cryo-EM structure; purified IadD/E complex with 20-fold molar excess of IAA, 2.6 Å (2.59 Å), C3 symmetry
[6] = biological target: IadE (Variovorax paradoxus CL14); test: as above
[7] = ITC, single-phase isotherm, auxin analogs to IadK2, mean ± SEM, read-out: KD
[8] = IadK2, ITC, replicates, read-out: Kd

`O=C(O)COc1ccc(Cl)cc1Cl` [2,4-D, 2,4-dichlorophenoxyacetic acid] showed a Kd ([1]; ITC, single-phase isotherm, auxin analogs to IadK2, mean ± SEM) of over 100 µM and a Kd ([1]; IadK2, ITC, replicates) of over 100 µM.

With `O=C(O)Cc1c[nH]c2cccc(Cl)c12` [4-Cl-IAA, 4-chloroindole-3-acetic acid] the Kd [1, 7] was 15.2 ± 6.8 µM, the Kd [1, 8] was 7 µM and 23.8 µM and 15 µM and the “relative substrate level after reaction” value [2] was 0.2122 and 0.2346 and 0.1886. For the same compound, the “relative substrate level before reaction” value [2] was 1 and 0.9732 and 0.9831.

In the case of `O=C(O)Cc1c[nH]c2ccc(O)cc12` [5-HIAA, 5-hydroxy indole-3-acetic acid], the “relative substrate level after reaction” value [2] is reported as 0.2661 and 0.2238 and 0.1936 and the “relative substrate level before reaction” value [2] is reported as 1 and 1.014 and 0.9931.

In the case of `O=C(O)CCCc1c[nH]c2ccccc12` [IBA, indole-3-butyric acid], the Kd [1, 7] is reported as 18 ± 7 µM, the Kd [1, 8] is reported as 28 µM and 11 µM and 16 µM and the “relative substrate level after reaction” value [2] is reported as 1.033 and 0.9962 and 0.976. For the same compound, the “relative substrate level before reaction” value [2] was 1 and 1.003 and 0.9923.

For `O=C(O)CCc1c[nH]c2ccccc12` [IPA, indole-3-propionic acid], the Kd [1, 7] was 1.4 ± 0.2 µM, the Kd [1, 8] was 1.6 µM and 1.2 µM and 1.5 µM and the “relative substrate level after reaction” value [2] was 0.9755 and 1.034 and 0.9864. For the same compound, the “relative substrate level before reaction” value [2] was 1 and 1.004 and 1.006.

For `O=C(O)Cc1cccc2ccccc12` [NAA, 1-naphthylacetic acid], the Kd [1, 7] was 17 ± 2.2 µM and the Kd [1, 8] was 15 µM and 16 µM and 20 µM.

In the case of `O=C(O)Cc1ccccc1` [PAA, phenylacetic acid], the “binding to IadK2 (ITC)” value ([1]; result in words) is reported as “no binding”, the Kd [3] is reported as over 100 µM and the Kd ([3]; read-out: ITC binding, IadK3, ITC, replicates) is reported as over 100 µM. For the same compound, the “binding to IadK3 (ITC)” value ([3]; result in words) was “no binding detected”.

`O=C(O)CC1C(=O)Nc2ccccc21` (centres unmarked) [oxIAA, 2-oxindole-3-acetic acid] was tested, and the “association with IadK3” value ([3]; result in words, method not stated) was “weakly associate”.

In the case of IadD (enzyme), the stoichiometry N (IadD:IadE molar ratio) [4] is reported as 1 and the stoichiometry N [5] is reported as 3.

Compound IadE (enzyme) has a stoichiometry N [6] of 3.
